Data from US10392373B2, “Oxazole derivatives that inhibit Syk” (AB Science, priority 2015, dated 2019).

Target: T1, SYK kinase (Homo sapiens, UniProt P43405)
T1 construct: SYK kinase was purified as a full length protein in a baculovirus system near homogeneity; made in house
Test: In vitro Syk inhibition assay (Kinase TK HTRF, Cisbio)
Type: biochemical
Conditions: full length SYK purified from a baculovirus system; ATP at least twice the Km; room temperature; average of triplicate; read-out: IC50: Concentration inhibiting 50% of protein kinase
Procedure: Protocol Inhibition Assays.
SYK kinase was purified as a full length protein in a baculovirus system near homogeneity. All kinase assays were performed with the Kinase TK (tyrosine kinase) HTRF (Homogeneous Time Resolved Fluorescence) assay developed by Cisbio international. These assays were carried out at room temperature in 96-wells half-area white plates in a final volume of 25 μl of kinase buffer (10 mM MgCl2; 2 mM MnCl2; 50 mM Sodium-HEPES pH 7.8; BRIJ-35 0.01%, 1 μM substrate) containing ATP at a concentration of at least twice the Km for each enzyme and an appropriate amount of recombinant enzyme to ensure a linear reaction rate. Reactions were initiated upon introduction of the enzyme and terminated with the addition of one reaction volume (25 μl) of HTRF detection buffer. Plates were incubated for one hour at room temperature and the time resolved Fluorescence resonance energy transfer signal was measured in a Pherastar FS microplate reader (BMG Labtech). All data are the average of triplicate results with a standard deviation <10%.

SMILES	IC50 [nM]
COc1ccnc(Nc2cccc(-c3cnc(N4CCNC(=O)C4C)o3)c2)n1 (stereo not drawn) [Compound 013, 4-{5-[3-(4-Methoxy-pyrimidin-2-ylamino)-phenyl]-oxazol-2-yl}-3-methyl-piperazin-2-one]	≤ 100
CC1C(=O)NCCN1c1ncc(-c2cccc(Nc3nccc(N4CCN(C)CC4)n3)c2)o1 (stereo not drawn) [Compound 029, 3-Methyl-4-(5-{3-[4-(4-methyl-piperazin-1-yl)-pyrimidin-2-ylamino]-phenyl}-oxazol-2-yl)-piperazin-2-one]	1000 to 10000
Cc1ccnc(Nc2cccc(-c3cnc(N4CCNC(=O)[C@@H]4C)o3)c2)n1 [Compound 019, (S)-3-Methyl-4-{5-[3-(4-methyl-pyrimidin-2-ylamino)-phenyl]-oxazol-2-yl}-piperazin-2-one]	≤ 100
CC1C(=O)NCCN1c1ncc(-c2cccc(Nc3nccc(C#N)n3)c2)o1 (stereo not drawn) [Compound 017, 2-{3-[2-(2-Methyl-3-oxo-piperazin-1-yl)-oxazol-5-yl]-phenylamino}-pyrimidine-4-carbonitrile]	≤ 100
CC(C)c1ccnc(Nc2cccc(-c3cnc(N4CCNC(=O)C4C(C)C)o3)c2)n1 (stereo not drawn) [Compound 036, 3-Isopropyl-4-{5-[3-(4-isopropyl-pyrimidin-2-ylamino)-phenyl]-oxazol-2-yl}-piperazin-2-one]	≤ 100
CC1C(=O)NCCN1c1ncc(-c2cccc(Nc3nccc(N4CCCC4)n3)c2)o1 (stereo not drawn) [Compound 028, 3-Methyl-4-{5-[3-(4-pyrrolidin-1-yl-pyrimidin-2-ylamino)-phenyl]-oxazol-2-yl}-piperazin-2-one]	100 to 1000
Cc1ccnc(Nc2cccc(-c3cnc(N4CCNC(=O)[C@H]4C)o3)c2)n1 [Compound 007, (R)-3-Methyl-4-{5-[3-(4-methyl-pyrimidin-2-ylamino)-phenyl]-oxazol-2-yl}-piperazin-2-one]	≤ 100
CC1C(=O)NCCN1c1ncc(-c2cccc(Nc3nccc(C4CC4)n3)c2)o1 (stereo not drawn) [Compound 041, 4-{5-[3-(4-Cyclopropyl-pyrimidin-2-ylamino)-phenyl]-oxazol-2-yl}-3-methyl-piperazin-2-one]	≤ 100
CCC1C(=O)NCCN1c1ncc(-c2cccc(Nc3nccc(C(F)(F)F)n3)c2)o1 (stereo not drawn) [Compound 011, 3-Ethyl-4-{5-[3-((4-trifluoromethyl)-pyrimidin-2-ylamino)-phenyl]-oxazol-2-yl}-piperazin-2-one]	≤ 100
Cc1ccnc(Nc2cccc(-c3cnc(N4CCNC(=O)C4C)o3)c2)n1 (stereo not drawn) [Compound 001, 3-Methyl-4-{5-[3-(4-methyl-pyrimidin-2-ylamino)-phenyl]-oxazol-2-yl}-piperazin-2-one]	≤ 100
CCc1ccnc(Nc2cccc(-c3cnc(N4CCNC(=O)C4C(C)C)o3)c2)n1 (stereo not drawn) [Compound 038, 4-{5-[3-(4-Ethyl-pyrimidin-2-ylamino)-phenyl]-oxazol-2-yl}-3-isopropyl-piperazin-2-one]	≤ 100
CCC1C(=O)NCCN1c1ncc(-c2cccc(Nc3nccc(C)n3)c2)o1 (stereo not drawn) [Compound 020, 3-Ethyl-4-{5-[3-(4-methyl-pyrimidin-2-ylamino)-phenyl]-oxazol-2-yl}-piperazin-2-one]	≤ 100
Cc1ccnc(Nc2cccc(-c3cnc(N4CCNC(=O)C4CCO)o3)c2)n1 (stereo not drawn) [Compound 024, 3-(2-Hydroxy-ethyl)-4-{5-[3-(4-methyl-pyrimidin-2-ylamino)-phenyl]-oxazol-2-yl}-piperazin-2-one]	100 to 1000
CC(C)C1C(=O)NCCN1c1ncc(-c2cccc(Nc3nccc(C4CC4)n3)c2)o1 (stereo not drawn) [Compound 043, 4-{5-[3-(4-Cyclopropyl-pyrimidin-2-ylamino)-phenyl]-oxazol-2-yl}-3-isopropyl-piperazin-2-one]	≤ 100
CCC1C(=O)NCCN1c1ncc(-c2cccc(Nc3nccc(C(C)C)n3)c2)o1 (stereo not drawn) [Compound 025, 3-Ethyl-4-{5-[3-(4-isopropyl-pyrimidin-2-ylamino)-phenyl]-oxazol-2-yl}-piperazin-2-one]	≤ 100

The next lines start with the values.

IC50 [nM]	SMILES
1000 to 10000	Cc1cnc(Nc2cccc(-c3cnc(N4CCNC(=O)C4(C)C)o3)c2)nc1C [Compound 022, 4-{5-[3-(4,5-Dimethyl-pyrimidin-2-ylamino)-phenyl]-oxazol-2-yl}-3,3-dimethyl-piperazin-2-one]
100 to 1000	Cc1ccnc(Nc2cc(CN3CCOCC3)cc(-c3cnc(N4CCNC(=O)C4C)o3)c2)n1 (stereo not drawn) [Compound 014, 3-Methyl-4-{5-[3-(4-methyl-pyrimidin-2-ylamino)-5-morpholin-4-ylmethyl-phenyl]-oxazol-2-yl}-piperazin-2-one]
≤ 100	Cc1ccnc(Nc2cccc(-c3cnc(N4CCNC(=O)C4(C)C)o3)c2)n1 [Compound 002, 3,3-Dimethyl-4-{5-[3-(4-methyl-pyrimidin-2-ylamino)-phenyl]-oxazol-2-yl}-piperazin-2-one]
≤ 100	CC(C)c1ccnc(Nc2cccc(-c3cnc(N4CCNC(=O)C4(C)C)o3)c2)n1 [Compound 023, 4-{5-[3-(4-Isopropyl-pyrimidin-2-ylamino)-phenyl]-oxazol-2-yl}-3,3-dimethyl-piperazin-2-one]
1000 to 10000	CC1(C)C(=O)NCCN1c1ncc(-c2cccc(Nc3nccc(N4CCCC4)n3)c2)o1 [Compound 032, 3,3-Dimethyl-4-{5-[3-(4-pyrrolidin-1-yl-pyrimidin-2-ylamino)-phenyl]-oxazol-2-yl}-piperazin-2-one]
≤ 100	CC1(C)C(=O)NCCN1c1ncc(-c2cccc(Nc3nccc(C4CC4)n3)c2)o1 [Compound 042, 4-{5-[3-(4-Cyclopropyl-pyrimidin-2-ylamino)-phenyl]-oxazol-2-yl}-3,3-dimethyl-piperazin-2-one]
≤ 100	CC1C(=O)NCCN1c1ncc(-c2cc(CN3CCOCC3)cc(Nc3nccc(C#N)n3)c2)o1 (stereo not drawn) [Compound 008, 2-{3-[2-(2-Methyl-3-oxo-piperazin-1-yl)-oxazol-5-yl]-5-(morpholin-4-ylmethyl)-phenylamino}-pyrimidine-4-carbonitrile]
≤ 100	Cc1ccnc(Nc2cc(CN3CCOCC3)cc(-c3cnc(N4CCNC(=O)C4(C)C)o3)c2)n1 [Compound 005, 3,3-Dimethyl-4-{5-[3-(4-methyl-pyrimidin-2-ylamino)-5-morpholin-4-ylmethyl-phenyl]-oxazol-2-yl}-piperazin-2-one]
≤ 100	CCc1ccnc(Nc2cccc(-c3cnc(N4CCNC(=O)C4(C)C)o3)c2)n1 [Compound 037, 4-{5-[3-(4-Ethyl-pyrimidin-2-ylamino)-phenyl]-oxazol-2-yl}-3,3-dimethyl-piperazin-2-one]
≤ 100	CC1(C)C(=O)NCCN1c1ncc(-c2cccc(Nc3nccc(C(F)(F)F)n3)c2)o1 [Compound 018, 3,3-Dimethyl-4-{5-[3-((4-trifluoromethyl)-pyrimidin-2-ylamino)-phenyl]-oxazol-2-yl}-piperazin-2-one]
100 to 1000	CC1(C)C(=O)NCCN1c1ncc(-c2cccc(Nc3nccc(N4CCOCC4)n3)c2)o1 [Compound 030, 3,3-Dimethyl-4-{5-[3-(4-morpholin-4-yl-pyrimidin-2-ylamino)-phenyl]-oxazol-2-yl}-piperazin-2-one]
≤ 100	CC1C(=O)NCCN1c1ncc(-c2cc(CN3CCOCC3)cc(Nc3nccc(C(F)(F)F)n3)c2)o1 (stereo not drawn) [Compound 015, 3-Methyl-4-{5-[3-morpholin-4-ylmethyl-5-((4-trifluoromethyl)-pyrimidin-2-ylamino)-phenyl]-oxazol-2-yl}-piperazin-2-one]
